The record followed here is patent publication US20240092761A1, “QUINAZOLINE COMPOUNDS AND METHODS OF USE” (IAMBIC THERAPEUTICS, INC., priority 2022, published 2024).

The test system of one assay is OVCAR-3 cells. Put plainly: Cell Growth Inhibition, OVCAR-3 (CellTiterGlo, 6 days). In kind it is cell-based. Particulars: OVCAR-3, 6-day treatment, CellTiterGlo 2.0. Summed up:
(§1)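 Compounds were run in half-log series, usually 10–10,000 nM, with 500 cells/well of OVCAR-3 or MCF-7 in RPMI plus 10% FBS. After a 6-day culture at 37 °C, viability was read by CellTiterGlo luminescence. Inhibition relative to control was fitted (four-parameter, variable slope) for IC50.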

The target in a further assay is CDK1/Cyclin B1 (Homo sapiens (Human), UniProt P06493). Nature of the assay: CDK1/Cyclin B1 ADP-Glo Kinase Assay. Particulars: 80 uM ATP. It is filed as biochemical. In outline:
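Luminescent ADP-Glo detection of ADP produced over 90 min at room temperature. Enzyme complex 4.917 nM, pre-exposed 30 min to inhibitor; ATP 80 µM (near Km 78.6 µM), substrate 0.75 µM, HEPES pH 7.5, 2% DMSO. Fractional velocity fitted to 4-parameter IC50 equation.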

For the next assay, the target named is CDK4/Cyclin D1 (Homo sapiens (Human), UniProt P11802). Nature of the assay: CDK4/Cyclin D1 Mobility Shift Assay (MSA). It is filed as biochemical. As to conditions: 0.2 mM ATP, read-out: CDK4/ CyclinD1 MSA IC50. An excerpt:
CDK4/Cyclin D1 Mobility Shift Assay (MSA)
The purpose CDK4/Cyclin D1 assay is to evaluate the inhibition (% inhibition and IC50 values) in the presence of small molecule inhibitors by using a fluorescence based microfluidic mobility shift assay. CDK4/Cyclin D1 catalyzes the production of ADP from ATP that accompanies the phosphoryl transfer to the substrate peptide 5-FAM-Dyrktide (5-FAM-RRRFRPASPLRGPPK) (Perkin Elmer Peptide 34). The mobility shift assay (MSA) electrophoretically separates the fluorescently labelled peptides (substrate and phosphorylated product) following the kinase reaction. Both substrate and product are measured, and the ratio of these values is used to generate % conversion of substrate to product by the LabChip EZ Reader. Typical reaction solutions contained 2% DMSO (+/−inhibitor), 10 mM MgCl2, 1 mM EGTA, 0.05% BSA, 2 mM DTT, 0.2 mM ATP, 0.01% Brig-35, 1.5 uM 5-FAM-Dyrktide, 2.5 nM CDK4/Cyclin D1 in 50 mM HEPES buffer at pH 7.5. The reaction was initiated with the addition of substrate solution, following a 30-minute pre-incubation of enzyme and inhibitor at 22° C. in the reaction mix. The reaction was stopped after 180 minutes by the addition of 75 uL of 500 mM EDTA and measured on a Perkin Elmer EZ reader instrument. IC50 determinations were made from a plot of the fractional velocity as a function of inhibitor concentration fit to the 4 parameters IC50 equation.

Assay [1] addresses CDK2/Cyclin E1 full length (Homo sapiens (Human), UniProt P24941). Put plainly: CDK2/Cyclin E1 Full Length ADP-Glo Kinase Assay. In kind it is biochemical. As to conditions: 20 uM ATP, read-out: CDK2/ CyclinE1 IC50. Summed up: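 ADP-Glo luminescence read-out of ADP formed by 0.328 nM wild-type full-length CDK2/Cyclin E1, 90 min at room temperature with 0.75 uM substrate and 20 uM ATP (Km 64.78 uM), after 30 min enzyme–inhibitor pre-incubation; 50 mM HEPES pH 7.5, 2% DMSO. Four-parameter IC50 fit.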

Another assay concerns MCF-7 cells. Put plainly: Cell Growth Inhibition, MCF-7 (CellTiterGlo, 6 days). In kind it is cell-based. As to conditions: MCF-7, 6-day treatment, CellTiterGlo 2.0. In outline: as §1
The target of another assay is CDK6/Cyclin D3 (Homo sapiens (Human), UniProt Q00534). Nature of the assay: CDK6/Cyclin D3 ADP-Glo Kinase Assay. In kind it is biochemical. Particulars: 100 uM ATP, read-out: CDK6/ CyclinD3 IC50. Summed up:
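Luminescent ADP-Glo read-out of ADP produced, used to fit IC50 (4-parameter equation on fractional velocity against inhibitor concentration). Kinase reaction: enzyme and inhibitor together 30 min, then ATP-containing substrate added for 90 min, all at room temperature.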

CDK4/Cyclin D1, sequence (P11802 whole entry): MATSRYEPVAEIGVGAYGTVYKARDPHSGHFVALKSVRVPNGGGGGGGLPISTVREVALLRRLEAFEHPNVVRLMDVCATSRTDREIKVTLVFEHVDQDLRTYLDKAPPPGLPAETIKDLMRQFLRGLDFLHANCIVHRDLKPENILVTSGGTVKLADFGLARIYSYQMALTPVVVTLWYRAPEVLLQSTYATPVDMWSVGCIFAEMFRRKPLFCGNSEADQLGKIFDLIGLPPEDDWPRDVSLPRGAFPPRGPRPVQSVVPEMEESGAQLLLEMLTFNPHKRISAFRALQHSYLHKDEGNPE
CDK4/Cyclin D1, sequence (P24385 whole entry partner): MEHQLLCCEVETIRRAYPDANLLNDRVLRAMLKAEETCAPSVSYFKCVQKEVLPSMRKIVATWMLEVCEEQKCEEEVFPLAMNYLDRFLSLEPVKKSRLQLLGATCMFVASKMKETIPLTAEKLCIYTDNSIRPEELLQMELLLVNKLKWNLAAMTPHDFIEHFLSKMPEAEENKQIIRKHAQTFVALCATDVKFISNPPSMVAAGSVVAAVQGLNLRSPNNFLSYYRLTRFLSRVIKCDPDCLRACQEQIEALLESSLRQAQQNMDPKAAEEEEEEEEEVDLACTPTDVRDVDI
CDK1/Cyclin B1, sequence (P06493 whole entry): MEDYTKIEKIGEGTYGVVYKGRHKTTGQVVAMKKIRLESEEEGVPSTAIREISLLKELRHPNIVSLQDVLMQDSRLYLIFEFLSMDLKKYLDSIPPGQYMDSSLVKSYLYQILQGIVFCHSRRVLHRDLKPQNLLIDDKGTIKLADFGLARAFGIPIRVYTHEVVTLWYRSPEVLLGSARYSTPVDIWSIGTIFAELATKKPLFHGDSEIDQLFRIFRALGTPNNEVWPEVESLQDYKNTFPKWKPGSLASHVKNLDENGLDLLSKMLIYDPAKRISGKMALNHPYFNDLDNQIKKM
CDK1/Cyclin B1, sequence (P14635 whole entry partner): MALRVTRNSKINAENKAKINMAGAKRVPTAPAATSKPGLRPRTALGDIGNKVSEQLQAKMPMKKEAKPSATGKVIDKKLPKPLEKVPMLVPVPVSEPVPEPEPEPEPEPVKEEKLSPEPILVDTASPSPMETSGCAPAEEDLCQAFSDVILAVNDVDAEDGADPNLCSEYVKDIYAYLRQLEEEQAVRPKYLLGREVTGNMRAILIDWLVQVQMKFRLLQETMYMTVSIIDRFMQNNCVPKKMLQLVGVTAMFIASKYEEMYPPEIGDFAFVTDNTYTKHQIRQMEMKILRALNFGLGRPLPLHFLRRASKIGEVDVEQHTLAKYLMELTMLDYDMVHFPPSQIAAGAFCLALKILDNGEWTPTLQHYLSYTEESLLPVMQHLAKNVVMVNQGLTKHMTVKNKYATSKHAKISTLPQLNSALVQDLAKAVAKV
CDK6/Cyclin D3, sequence (Q00534 whole entry): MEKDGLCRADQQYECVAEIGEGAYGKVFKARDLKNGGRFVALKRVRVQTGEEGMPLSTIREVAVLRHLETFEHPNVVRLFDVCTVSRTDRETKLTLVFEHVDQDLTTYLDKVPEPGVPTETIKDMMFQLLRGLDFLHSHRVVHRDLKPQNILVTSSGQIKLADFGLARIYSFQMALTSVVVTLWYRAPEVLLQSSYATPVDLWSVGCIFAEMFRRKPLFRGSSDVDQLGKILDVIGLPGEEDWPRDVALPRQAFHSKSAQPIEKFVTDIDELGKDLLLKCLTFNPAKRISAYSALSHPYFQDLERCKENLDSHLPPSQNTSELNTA
CDK6/Cyclin D3, sequence (P30281 whole entry partner): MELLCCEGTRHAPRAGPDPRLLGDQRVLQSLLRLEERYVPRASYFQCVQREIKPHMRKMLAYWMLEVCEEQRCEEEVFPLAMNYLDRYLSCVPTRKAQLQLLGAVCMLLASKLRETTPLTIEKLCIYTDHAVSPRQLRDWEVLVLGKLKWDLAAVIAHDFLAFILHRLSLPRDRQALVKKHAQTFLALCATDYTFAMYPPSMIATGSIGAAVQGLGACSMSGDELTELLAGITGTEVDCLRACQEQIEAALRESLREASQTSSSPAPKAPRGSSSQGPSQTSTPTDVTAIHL

Consider `CN1CC2(CCN(c3cccc4cnc(Nc5ccc(N6CC7(COC7)C6)cn5)nc34)C2)C1` [Example 42, N-(5-(2-oxa-6-azaspiro[3.3]heptan-6-yl)pyridin-2-yl)-8-(2-methyl-2,6-diazaspiro[3.4]octan-6-yl)quinazolin-2-amine], for which the IC50 is greater than 2000 nM with OVCAR-3 cells (Homo sapiens, 144 h); greater than 2000 nM against CDK1/Cyclin B1; less than 200 nM on CDK4/Cyclin D1; greater than 2000 nM in assay [1]; 200 to 500 nM with MCF-7 cells (Homo sapiens, MCF7, 144 h); 200 to 500 nM at CDK6/Cyclin D3.

For the molecule `CC(=O)N1CCC2(CCN(c3cc(C(F)F)cc4cnc(Nc5cnn(C(C)C)c5)nc34)C2)C1` (stereo not drawn) [Example 52, 1-(7-(6-(difluoromethyl)-2-((1-isopropyl-1H-pyrazol-4-yl)amino)quinazolin-8-yl)-2,7-diazaspiro[4.4]nonan-2-yl)ethan-1-one], the IC50 in the assay on OVCAR-3 cells (Homo sapiens, 144 h) is 500 to 2000 nM; on CDK1/Cyclin B1, 500 to 2000 nM; on CDK4/Cyclin D1, less than 200 nM; in assay [1], 500 to 2000 nM; in the assay on MCF-7 cells (Homo sapiens, MCF7, 144 h) it was 200 to 500 nM; on CDK6/Cyclin D3, 500 to 2000 nM.

With `CC(=O)N1CCC2(CCN(c3cccc4cnc(Nc5ccc6c(c5)CCN(C)C6)nc34)C2)C1` (stereo not drawn) [Example 38, 1-(7-(2-((2-methyl-1,2,3,4-tetrahydroisoquinolin-6-yl)amino)quinazolin-8-yl)-2,7-diazaspiro[4.4]nonan-2-yl)ethan-1-one], the IC50 in the assay with OVCAR-3 cells (Homo sapiens, 144 h) was 500 to 2000 nM; at CDK1/Cyclin B1 it was greater than 2000 nM; on CDK4/Cyclin D1 it was less than 200 nM; in assay [1] it was 200 to 500 nM; with MCF-7 cells (Homo sapiens, MCF7, 144 h) it was 500 to 2000 nM; at CDK6/Cyclin D3, 200 to 500 nM.

With `CS(=O)(=O)N1CCC(Nc2ncc3cccc(N4CC5(CCNC5)C4)c3n2)CC1` [Example 31, N-(1-(methylsulfonyl)piperidin-4-yl)-8-(2,6-diazaspiro[3.4]octan-2-yl)quinazolin-2-amine], the IC50 was 500 to 2000 nM with OVCAR-3 cells (Homo sapiens, 144 h); 200 to 500 nM against CDK1/Cyclin B1; less than 200 nM at CDK4/Cyclin D1; less than 200 nM in assay [1]; 500 to 2000 nM with MCF-7 cells (Homo sapiens, MCF7, 144 h); 200 to 500 nM on CDK6/Cyclin D3.

Regarding `CC(=O)N1CCC2(CCN(c3cccc4cnc(Nc5ccc(N6CC7(C6)CC(F)(F)C7)cn5)nc34)C2)C1` (stereo not drawn) [Example 47, 1-(7-(2-((5-(6,6-difluoro-2-azaspiro[3.3]heptan-2-yl)pyridin-2-yl)amino)quinazolin-8-yl)-2,7-diazaspiro[4.4]nonan-2-yl)ethan-1-one], the IC50 in the assay on OVCAR-3 cells (Homo sapiens, 144 h) was greater than 2000 nM; against CDK1/Cyclin B1 it was greater than 2000 nM; on CDK4/Cyclin D1, 200 to 500 nM; in assay [1], greater than 2000 nM; in the assay on MCF-7 cells (Homo sapiens, MCF7, 144 h), greater than 2000 nM; at CDK6/Cyclin D3, 200 to 500 nM.

For `FC(F)c1cc(N2CCC3(C2)CC3(F)F)c2nc(NC3[C@H]4CNC[C@@H]34)ncc2c1` (stereo partly drawn) [Example 53, 8-(1,1-difluoro-5-azaspiro[2.4]heptan-5-yl)-6-(difluoromethyl)-N-((1R,5S,6s)-3-azabicyclo[3.1.0]hexan-6-yl)quinazolin-2-amine], the IC50 is greater than 2000 nM in the assay with OVCAR-3 cells; greater than 2000 nM against CDK1/Cyclin B1; less than 200 nM at CDK4/Cyclin D1; greater than 2000 nM in assay [1]; 500 to 2000 nM with MCF-7 cells; less than 200 nM at CDK6/Cyclin D3.

On to `CC(=O)N1CCC2(CCN(c3cccc4cnc(Nc5ccc(N6CC7(COC7)C6)cn5)nc34)C2)C1` (stereo not drawn) [Example 41, 1-(7-(2-((5-(2-oxa-6-azaspiro[3.3]heptan-6-yl)pyridin-2-yl)amino)quinazolin-8-yl)-2,7-diazaspiro[4.4]nonan-2-yl)ethan-1-one], for which the IC50 is greater than 2000 nM in the assay with OVCAR-3 cells (Homo sapiens, 144 h); greater than 2000 nM against CDK1/Cyclin B1; 200 to 500 nM on CDK4/Cyclin D1; greater than 2000 nM in assay [1]; greater than 2000 nM in the assay with MCF-7 cells (Homo sapiens, MCF7, 144 h); 500 to 2000 nM on CDK6/Cyclin D3.
